Test results taken from paper PMC10541456, “A phase I, single‐center, open‐label study to investigate the absorption, distribution, metabolism and excretion of encorafenib following a single oral dose of 100 mg [ ^14C] encorafenib in healthy male subjects” (Pharmacology Research & Perspectives, 2023).

Assays:
[1] = Metabolite profiles in plasma (UPLC, radioactivity detection, MS); assay type: in vivo, human; conditions: for Mean (range) Circulating Radioactivity in Plasma Based on AUC0-24: 100 mg oral [14C] encorafenib; for Mean (range) Circulating Radioactivity in Plasma Based on AUC0-24 (%): M12.8 value is sum of M12.8 and M13.2
Method: To the thawed plasma samples (1.5 mL plasma/ time points) two volumes of ice‐cold acetonitrile:ethanol:acetic acid (90:10:0.1, v/v) were added, followed by vortex mixing (10 min) and sonication (10 min). After centrifugation, the supernatants (4.2 mL) were evaporated to near dryness under a gentle stream of nitrogen on a TurboVap LV (Zymark Corp.). The residues were reconstituted in 80 μL of methanol:water:acetic acid (50:50:0.1, v/v) and 45 μL were injected into the ultra‐performance liquid chromatography (UPLC) system with off‐line radioactivity detection.
Characterization and quantification of the metabolites of encorafenib in select human plasma and excreta samples were performed by the Department of DMPK (Drug Metabolism and Pharmacokinetics) at the Novartis Institutes for Biomedical Research (East Hanover, NJ, USA) using liquid chromatography (LC) coupled to radioactivity detectors and mass spectrometers (MS).
The analytical system consisted of a Waters ACQUITY UPLC system (Waters), equipped with a Phenomenex Luna PFP column (3 μm, 4.6 × 150 mm) (Phenomenex) and a guard column of the same phase, both maintained at a temperature of 30°C. The mobile phases consisted of 10 mM ammonium acetate containing 0.1% formic acid (v/v) (solvent A) and CH3CN (solvent B). The total run time was 80 min. A linear gradient elution program was used with a flow rate of 1 mL/min as described in Table 1.
The UPLC effluent was split 4:1, with […] of the total flow introduced to the mass spectrometer for mass spectral analysis and the remaining flow used for radioactivity detection.
For off‐line radioactivity detection, the eluant was collected into 96‐well Lumaplate (Packard Instrument Co) microplates using a Collect Pal fraction collector (Leap Technologies) with a collection time of 10 seconds per well. The LumaPlates were sealed after drying and counted for 10–50 min per well on a Packard Topcount microplate scintillation counter. The structural characterization of metabolites was carried out using the above UPLC profiling method coupled to a two‐channel Z‐spray (LockSprayTM) time‐of‐flight mass spectrometer (Synapt MS). Leucine enkephalin was used as the mass reference standard for exact mass measurements and was delivered via the second spray channel at a flow rate of 5 μL/minute. The mass spectrometer was operated at a resolution of ~10 000 m/ΔmFWHM with spectra being collected from 100 to 1000 amu. The ionization technique employed was positive electrospray. The sprayer voltage was kept at 3100 V and the sampling cone voltage was kept at a potential of 20 V. For the time‐of‐flight MS/MS experiments, trap energies of 25 to 45 eV and transfer energy of 15 eV were used with argon as the collision gas.
All radioactivity data were transferred to Laura software (version 4.2.2.24, Lab Logic Ltd, UK) to generate and integrate radio‐chromatograms. Radioactive peaks for quantitative analysis were manually selected from the plots. The radioactivity in the region encompassing the beginning and end of the peak was summed. All further calculations were based on radioactivity.
The percent of radioactivity (%RA) in a particular peak, Z, was calculated as follows in Equation (1): (1) %RAinZ=DPMin PeakZ/totalDPMinallintegrated peaksx100
The concentration or amount of each component was calculated as % RA (expressed as a fraction) multiplied by the total concentration of radioactivity in plasma, or the percent of dose in the excreta.

[2] = system: A375 (BRAF V600E) melanoma cell proliferation; set-up: method as in data on file; conditions: fraction of encorafenib potency; ref data on file; cited from earlier work
[3] = set-up: method as in data on file; conditions: ref data on file; cited from earlier work

Mean (range) Circulating Radioactivity in Plasma Based on AUC0-24 [1] | Mean (range) Circulating Radioactivity in Plasma Based on AUC0-24 (%) [1] | SMILES | Potency relative to encorafenib against A375 cell proliferation [2] | In vitro safety pharmacology result [3]
806 (525–1250) ngEq/mL*h | 5.09 (4.02–6.36) % | CC(O)CNc1nccc(-c2cn(C(C)C)nc2-c2cc(Cl)cc(NS(C)(=O)=O)c2F)n1 (stereo not drawn) [M44] |  | 
2430 (1740–3320) ngEq/mL*h | 15.5 (13.4–17.4) % | CC(C)n1cc(-c2ccnc(N)n2)c(-c2cc(Cl)cc(NS(C)(=O)=O)c2F)n1 [M42.5A] | approximately 1/30 | no significant safety signal
